Laboratory results as given in patent publication US20200330446A1, “COMPOSITIONS AND METHODS OF TREATING SKIN FIBROTIC DISORDERS” (AIVIVA BIOPHARMA, INC., priority 2015, published 2020).
“Also recorded” adds a separate entry of the source.

Legend:
[1] = tested on: TGF-β1 mRNA; experiment: TGF-β1 mRNA expression by qRT-PCR in rabbit ear wound sites; type: in vivo, New Zealand White rabbits; conditions: for Rabbit TGFB1 mRNA Expression Fold by Treatment Relative to Untreated Wounded (mean ± SD): rabbit ear wound sites, Treated (each drug), N 5 or 6, intradermal; for mean TGFb1 mRNA level after intradermal treatment, in words: rabbit ear, compared with the vehicle-treated wound
Experimental: (§1) Eight wounds were created on the ventral surface of the ears of each of New Zealand White rabbits using skin punch biopsies, and then the wounds were allowed to heal for approximately 2 weeks.
(§2) A dose (e.g., 1%) of axitinib, nintedanib, riociguat, sorafenib, sunitinib, and/or lenvatinib was administered into the dermal tissue, once every two weeks on two occasions. Again, the specific doses, treatment methods and schedules are for illustration only. One skilled in the art would appreciate that variations and modifications are possible to achieve similar results.
(§3) On Day 42 post wound, the rabbits were sacrificed and dermal tissues were collected for qualitative and quantitative evaluation using hematoxylin and eosin and Mason's Trichrome staining. In addition, TGF-β1 mRNA expression levels were measured using qRT-PCR.

[2] = tested on: full-thickness excision wounds on the dorsum of Yucatan minipigs; experiment: Yucatan minipig full-thickness excision wound model, histologic evaluation (H&E, Mason's Trichrome); type: in vivo; conditions: for Fibroplasia; dermis, Average Scores / Neovascularization; dermis, Average Scores: minipig wound sites after two doses, Day 59 post wound, average of individual scores, scale 1 minimal to 5 severe
Description: Porcine skin resembles human skin in many aspects. Both species have a relatively thick epidermis, distinct rete pegs, dermal papillae, and dense elastic fibers in the dermis. Furthermore, unlike rodents and rabbits, porcine skin is adherent to the subcutaneous structures, similar to human skin. Because of these anatomical similarities and other parallelisms in wound healing, porcine models have emerged as important foundations for the study of pathophysiology and potential treatment paradigms for abnormal wound healing. It has also been observed in porcine full-thickness wound healing in Yucatan Minipigs that the spatial and temporal expressions of TGF-β1, PDGF and VEGF were similar to the patterns for the growth factors described above. Therefore, the full-thickness excision models in Yucatan minipigs are the models for human wound healing studies.
(§4) In this experiment, multiple full-thickness excision wounds were made to the dorsum of Yucatan minipigs, and the wound sites were allowed to re-epithelialized adequately. At four weeks post-wound, the wound sites had normal to pink vascularity and had pliability. Epidermal hyperplasia was observed, as expected for regenerative responses in the full-thickness wounds.
(§5) On Day 28 post-wound, a dose (e.g., 1%) of axitinib, nintedanib, riociguat, sorafenib, sunitinib, and/or lenvatinib was administered into the dermal tissue at or around the wound sites, once every two weeks on two occasions. One wound site was left untreated as the control for each pig. Please note that the particular parameters in this example are only for illustration. One skilled in the art would appreciate that the dosages, administration methods, treatment regimen, and the administration sites may be varied to achieve similar results.
On Day 59 post wound, the minipigs were sacrificed and dermal tissues were collected for qualitative and quantitative evaluation using hematoxylin and eosin, and Mason's Trichrome staining. Dermal fibroplasia was characterized by increased numbers of fibroblasts in the dermis suspended in variable amounts of collagen in wounds.

[3] = tested on: rabbit ear hypertrophic scar; experiment: Rabbit ear hypertrophic scar model, histologic evaluation (H&E, Mason's Trichrome); type: in vivo, New Zealand White rabbits; conditions: intradermal, Day 42 post wound, compared with untreated and vehicle-treated wound; for fibrosis of treated wound, in words / neovascularization of treated wound, in words: once every two weeks on two occasions
Description: In rabbits, wounds are created down to the bare cartilage on the ventral surface of the ear using a dermal biopsy punch. […] By both appearance and histological analysis, these scars resemble human hypertrophic scars. In this established model, it was shown that reduced TGF-β expression results in reduced scarring, which is consistent with the current understanding of the pathogenesis of excessive scarring/dermal fibrosis. […] Thus, this rabbit model was also used to assess the compounds of the invention.
as §1, §2, §3
Histologic slides for hematoxylin and eosin stainings were prepared from the wound sites. Tissues were evaluated qualitatively for inflammation, neovascularization, granulation tissue, degrees of re-epithelialization, and degrees of scarring (avascular collagen).

[4] = tested on: TGF-β1 mRNA; experiment: TGF-β1 mRNA expression by qRT-PCR in Yucatan pig skin wound sites; type: in vivo, Yucatan minipigs; conditions: minipig; compared to unwounded normal skin
Description: as §4, §5
In addition, total mRNA was isolated from skin biopsies of the treated wound sites and the untreated unwounded sites of the pigs. The mRNA samples were used to prepare cDNA and analyzed via qRT-PCR. The TGF-β1 expression levels were assessed using beta actin as a reference gene.

[5] = minipig, two biweekly treatments, histopathology relative to the untreated wound

SMILES	Rabbit TGFB1 mRNA Expression Fold by Treatment Relative to Untreated Wounded (mean ± SD) [1] [Fold]	Fibroplasia; dermis, Average Scores [2]	Neovascularization; dermis, Average Scores [2]	mean TGFb1 mRNA level after intradermal treatment, in words [1]	re-epithelialization of treated wound, in words [3]	fibrosis of treated wound, in words [3]	neovascularization of treated wound, in words [3]	scar tissues of treated wound, in words [3]	TGF-β1 mRNA expression level at treated wounds, in words [4]	dermal fibroplasia / fibrosis at treated wound, in words [2, 5]	neovascularization at treated wound, in words [2, 5]
CNC(=O)c1ccccc1Sc1ccc2c(/C=C/c3ccccn3)n[nH]c2c1 [axitinib]	0.87 ± 0.28	(2.33)	(1.67)								
COc1cc2nccc(Oc3ccc(NC(=O)NC4CC4)c(Cl)c3)c2cc1C(N)=O [lenvatinib]	0.66 ± 0.25	(3.00)	(2.33)	lower	similar	similar	similar				
COC(=O)c1ccc2c(c1)NC(=O)/C2=C(\Nc1ccc(N(C)C(=O)CN2CCN(C)CC2)cc1)c1ccccc1 [nintedanib]	0.73 ± 0.13	(2.33)	(1.67)	lower		decreased	decreased; also recorded: much less	less	most effective	reduced	noticeably reduced
COC(=O)N(C)c1c(N)nc(-c2nn(Cc3ccccc3F)c3ncccc23)nc1N [riociguat]	1.14 ± 0.14	(2.67)	(2.67)			slightly decreased	slightly decreased		most effective		
CNC(=O)c1cc(Oc2ccc(NC(=O)Nc3ccc(Cl)c(C(F)(F)F)c3)cc2)ccn1 [sorafenib]	0.87 ± 0.13	(3.00)	(2.33)	lower			slightly increased		most effective		
CCN(CC)CCNC(=O)c1c(C)[nH]c(/C=C2\C(=O)Nc3ccc(F)cc32)c1C [sunitinib]	0.76 ± 0.23	(2.67)	(2.33)								
